Laboratory results as given in patent publication US20130165475A1, “DEUTERIUM-ENRICHED HETEROCYCLIC COMPOUNDS AS KINASE INHIBITORS” (ASCEPION PHARMACEUTICALS, INC., priority 2010, published 2013).

Legend:
[1] = test system: Mouse liver microsome; assay: Liver microsomal stability assay, mouse; format: in vitro ADME; design: key: A: the percentage of a compound remains is greater than that of its deuterium non-enriched counterpart; B: a result otherwise; conditions: 40 μM, 37° C., 30 min, 1 mg/ml microsome proteins; class relative to deuterium non-enriched counterpart
Method: A standard liver microsomal stability assay can be used to test or screen the compounds of this invention and to identify compounds with enhanced metabolic stability due to the enrichment of deuterium in the compounds. Liver microsome proteins prepared from different species such as mouse and rat were obtained from a commercial source (Research Institute for Liver Diseases, Shanghai, China). The assay was conducted in 1.5% potassium hydrogenphosphate (K2HPO4) in the presence of liver microsome proteins at 1 mg/ml and supplemented with an […] (3.3 mM NADPH, 3.3 mM glucose-6-phosphate, 6 units/ml G6PDase, and 3.3 mM magnesium chloride). Test compound was added into the assay mixture to a final concentration of 40 μM and incubated at 37° C. for 0 or 30 minutes. The reaction was stopped by the addition of 20 μM Bifonazole/CAN. Samples were then centrifuged at 14000 rpm for 10 minutes to precipitate proteins. Supernatant were then transferred to microcentrifuge tubes and subject to reverse phase HPLC analysis to determine the concentration of test compound.
The percentage of compounds that remained in the assay reactions after a thirty-minute incubation at 37° C. is calculated as the ratio between the amount of compound remained after a thirty-minute and that after a zero-minute incubation.

[2] = target: T1, PDGFRβ (Homo sapiens, UniProt P09619); assay: PDGFRβ cell-based assay (ELISA, phosphor-/total PDGFRβ in transfected CHO cells); conditions: compound at 100 nM; CHO cells transfected with full length PDGFRβ; FBS stimulation; read-out: % PDGFRβ kinase activity remains
T1 construct: expressed in transfected cells; host or cells: CHO cells
T1 sequence (P09619 33-1106): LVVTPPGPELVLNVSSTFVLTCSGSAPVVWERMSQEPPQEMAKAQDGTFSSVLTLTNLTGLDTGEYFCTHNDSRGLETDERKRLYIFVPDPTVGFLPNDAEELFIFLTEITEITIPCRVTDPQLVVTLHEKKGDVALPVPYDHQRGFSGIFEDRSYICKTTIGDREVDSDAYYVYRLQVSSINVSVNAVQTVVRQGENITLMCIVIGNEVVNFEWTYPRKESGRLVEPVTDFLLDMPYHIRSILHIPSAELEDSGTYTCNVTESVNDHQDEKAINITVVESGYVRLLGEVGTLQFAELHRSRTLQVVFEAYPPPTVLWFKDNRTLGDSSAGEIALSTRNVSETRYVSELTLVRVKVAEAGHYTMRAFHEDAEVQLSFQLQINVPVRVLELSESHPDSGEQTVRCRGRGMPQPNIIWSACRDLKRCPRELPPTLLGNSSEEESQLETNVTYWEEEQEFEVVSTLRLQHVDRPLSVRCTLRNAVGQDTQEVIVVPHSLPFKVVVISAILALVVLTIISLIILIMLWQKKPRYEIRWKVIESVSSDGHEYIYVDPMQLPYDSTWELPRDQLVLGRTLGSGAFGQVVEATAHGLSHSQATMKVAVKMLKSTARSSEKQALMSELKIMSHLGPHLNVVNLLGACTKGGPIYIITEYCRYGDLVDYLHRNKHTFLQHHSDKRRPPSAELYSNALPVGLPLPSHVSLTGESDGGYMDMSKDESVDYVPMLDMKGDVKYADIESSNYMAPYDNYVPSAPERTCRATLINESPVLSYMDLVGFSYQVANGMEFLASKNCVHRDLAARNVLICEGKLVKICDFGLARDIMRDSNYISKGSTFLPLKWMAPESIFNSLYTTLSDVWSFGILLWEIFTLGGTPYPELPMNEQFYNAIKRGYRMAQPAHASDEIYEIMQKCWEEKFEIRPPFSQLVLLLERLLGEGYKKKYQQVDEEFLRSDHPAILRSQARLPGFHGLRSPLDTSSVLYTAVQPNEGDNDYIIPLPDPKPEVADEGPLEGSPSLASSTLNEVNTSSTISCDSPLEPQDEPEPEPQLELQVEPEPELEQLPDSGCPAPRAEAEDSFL
Text: A standard cell-based assay for PDGFRβ kinase activity can be used to test or screen the compounds of this invention and to identify PDGFRβ antagonists. In this example, ELISA kits (R&D Systems, Inc., Minneapolis, Minn. 55413, USA) were used.
(§1) The activity of PDGFRβ in cells depended on its autophosphorylation level by various factors including growth factors. In order to induce the cell to produce PDGFRβ, full length of PDGFRβ sequence was cloned into PC-DNA3.1 vector, the plasmid was then transfected into CHO cells. After 48 hours, the expression of PDGFRβ in transfected CHO cells was confirmed by regular western blotting.
A compound to be tested was first dissolved in DMSO to a concentration of 10 mM and stored at −20° C. One day before the screening, CHO cells transfected with full length PDGFRβ plasmid were grown in DMEM medium without the presence of serum. On the day of screening procedure, the compounds with various concentration in DMSO (from 0.5 nM to 500 nM) were added into DMEM medium, two hours later, 20% of FBS (Fetal Bovine Serum) was added into the medium to stimulate the production of phosphor-PDGFRβ. Cell lysate from approximately 5×10^5 transfected CHO cells were reacted with anti-phosphor PDGFRβ or anti-total PDGFRβ antibody in 96 well plates, in the presence of detection antibody. The phosphor-PDGFRβ or total PDGFRβ were detected with Streptavidin-HRP (R&D Systems), followed by chemiluminescent detection. The level of PDGFRβ kinase activity was quantified as the ratio between the amount of phosphor- and that of total PDGFRβ proteins.

[3] = target: T2, VEGFR2 (Homo sapiens, UniProt P35968); assay: VEGFR2 cell-based assay (ELISA, phosphor-/total VEGFR2 in transfected CHO cells); conditions: compound at 100 nM; CHO cells transfected with full length VEGFR2; FBS stimulation; read-out: % VEGFR2 kinase activity remains
T2 construct: expressed in transfected cells; host or cells: CHO cells
T2 sequence (P35968 20-1356): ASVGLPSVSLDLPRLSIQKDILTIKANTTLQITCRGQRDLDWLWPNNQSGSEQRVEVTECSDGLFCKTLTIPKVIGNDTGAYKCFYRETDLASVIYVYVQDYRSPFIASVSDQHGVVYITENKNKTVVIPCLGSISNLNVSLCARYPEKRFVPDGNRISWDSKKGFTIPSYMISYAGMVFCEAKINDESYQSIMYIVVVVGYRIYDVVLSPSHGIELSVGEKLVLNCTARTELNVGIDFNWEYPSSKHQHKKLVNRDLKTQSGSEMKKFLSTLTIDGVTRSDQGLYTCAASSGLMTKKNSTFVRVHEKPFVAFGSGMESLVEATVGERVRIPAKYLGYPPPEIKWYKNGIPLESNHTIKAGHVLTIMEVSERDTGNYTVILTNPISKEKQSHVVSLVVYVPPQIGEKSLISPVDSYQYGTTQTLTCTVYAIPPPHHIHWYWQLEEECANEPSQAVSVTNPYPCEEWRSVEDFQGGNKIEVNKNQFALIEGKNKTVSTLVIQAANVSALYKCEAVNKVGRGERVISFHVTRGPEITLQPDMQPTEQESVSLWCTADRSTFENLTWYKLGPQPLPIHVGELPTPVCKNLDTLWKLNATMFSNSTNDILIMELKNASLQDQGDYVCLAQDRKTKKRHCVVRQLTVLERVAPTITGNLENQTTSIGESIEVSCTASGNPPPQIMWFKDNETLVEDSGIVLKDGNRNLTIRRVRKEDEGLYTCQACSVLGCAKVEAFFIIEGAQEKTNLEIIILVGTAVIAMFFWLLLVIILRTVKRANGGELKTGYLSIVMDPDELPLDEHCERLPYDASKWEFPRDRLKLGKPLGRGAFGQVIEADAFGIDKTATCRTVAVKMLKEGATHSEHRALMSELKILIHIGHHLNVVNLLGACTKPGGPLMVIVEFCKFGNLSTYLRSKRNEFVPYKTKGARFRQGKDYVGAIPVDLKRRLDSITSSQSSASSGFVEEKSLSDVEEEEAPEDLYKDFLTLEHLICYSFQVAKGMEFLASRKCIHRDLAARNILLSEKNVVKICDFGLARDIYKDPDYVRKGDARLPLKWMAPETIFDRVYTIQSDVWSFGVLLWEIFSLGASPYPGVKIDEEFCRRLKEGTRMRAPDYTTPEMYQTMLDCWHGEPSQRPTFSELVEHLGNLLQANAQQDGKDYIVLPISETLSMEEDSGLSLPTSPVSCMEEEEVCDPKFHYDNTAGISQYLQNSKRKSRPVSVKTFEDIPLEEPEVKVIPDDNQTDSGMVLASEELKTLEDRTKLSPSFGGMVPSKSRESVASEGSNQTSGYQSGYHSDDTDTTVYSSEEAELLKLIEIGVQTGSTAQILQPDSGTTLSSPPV
Text: A standard cell-based assay for VEGFR2 kinase activity can be used to test or screen the compounds of this invention and to identify VEGFR2 antagonists. In this example, ELISA kits (R&D Systems, Inc., Minneapolis, Minn. 55413, USA) were used.
as §1, with “VEGFR2” for “PDGFRβ”, “VEGFR2,” for “PDGFRβ,”
A compound to be tested was first dissolved in DMSO to a concentration of 10 mM and stored at −20° C. One day before the test, CHO cells transfected with full length VEGFR2 plasmid were grown in Dulbecco's Modified Eagle Medium (DMEM) without the presence of serum. On the day of the test, the compounds with various concentrations in DMSO (from 0.5 nM to 500 nM) were added into DMEM. Two hours later, 20% of FBS (Fetal Bovine Serum) was added into the medium to stimulate the production of phosphor-VEGFR2. Cell lysate from approximately 5×10^5 transfected CHO cells were reacted with anti-phosphor VEGFR2 or anti-total VEGFR2 antibody in 96-well plates, in the presence of detection antibody. The phosphor-VEGFR2 or total VEGFR2 were detected with Streptavidin-HRP(R&D Systems), followed by chemiluminescent detection. The level of VEGFR2 kinase activity was quantified as the ratio between the amount of phosphor- and that of total VEGFR2 proteins.

[4] = target: T3, c-Met (Homo sapiens, UniProt P08581); assay: c-Met cell-based assay (ELISA, phosphor-/total c-Met in transfected CHO cells, HGF stimulated); conditions: compound at 100 nM; CHO cells transfected with full length c-Met; HGF 100 ng/mL
T3 construct: expressed in transfected cells; host or cells: CHO cells
T3 sequence (P08581 25-1390): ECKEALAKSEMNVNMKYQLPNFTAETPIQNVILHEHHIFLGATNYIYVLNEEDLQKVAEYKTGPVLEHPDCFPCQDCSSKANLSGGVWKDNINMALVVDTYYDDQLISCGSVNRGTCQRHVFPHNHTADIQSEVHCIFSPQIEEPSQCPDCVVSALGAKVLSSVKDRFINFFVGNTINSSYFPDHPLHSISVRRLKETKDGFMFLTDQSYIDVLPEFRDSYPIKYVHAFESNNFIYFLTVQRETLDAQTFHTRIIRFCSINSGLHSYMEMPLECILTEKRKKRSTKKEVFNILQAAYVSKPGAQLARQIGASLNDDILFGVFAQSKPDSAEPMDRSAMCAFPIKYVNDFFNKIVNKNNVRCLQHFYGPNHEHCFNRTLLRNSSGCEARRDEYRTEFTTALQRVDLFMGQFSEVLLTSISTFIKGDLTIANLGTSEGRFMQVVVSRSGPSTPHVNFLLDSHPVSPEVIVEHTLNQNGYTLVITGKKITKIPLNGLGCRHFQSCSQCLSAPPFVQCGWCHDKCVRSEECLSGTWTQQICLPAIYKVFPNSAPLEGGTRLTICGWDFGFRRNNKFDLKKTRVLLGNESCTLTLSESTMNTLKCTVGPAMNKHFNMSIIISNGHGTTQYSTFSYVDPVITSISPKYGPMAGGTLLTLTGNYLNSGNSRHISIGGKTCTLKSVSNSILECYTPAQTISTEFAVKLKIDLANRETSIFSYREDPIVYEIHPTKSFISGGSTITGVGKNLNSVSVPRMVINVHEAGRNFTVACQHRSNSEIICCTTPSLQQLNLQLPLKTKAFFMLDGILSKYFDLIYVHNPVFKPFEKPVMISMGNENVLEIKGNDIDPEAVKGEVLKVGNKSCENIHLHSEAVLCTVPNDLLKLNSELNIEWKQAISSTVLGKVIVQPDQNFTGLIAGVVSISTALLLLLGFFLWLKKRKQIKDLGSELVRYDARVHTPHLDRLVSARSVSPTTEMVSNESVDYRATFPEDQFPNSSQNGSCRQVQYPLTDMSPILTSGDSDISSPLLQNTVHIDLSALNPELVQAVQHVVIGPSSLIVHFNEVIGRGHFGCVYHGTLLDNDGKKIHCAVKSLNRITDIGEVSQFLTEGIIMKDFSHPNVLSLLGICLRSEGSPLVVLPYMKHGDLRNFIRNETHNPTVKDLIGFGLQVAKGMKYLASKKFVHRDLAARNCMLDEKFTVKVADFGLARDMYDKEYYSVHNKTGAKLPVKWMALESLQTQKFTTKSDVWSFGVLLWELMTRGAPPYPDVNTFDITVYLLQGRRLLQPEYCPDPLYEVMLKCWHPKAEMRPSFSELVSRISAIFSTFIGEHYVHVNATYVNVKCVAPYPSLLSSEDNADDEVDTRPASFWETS
Text: A standard cell-based assay for c-Met kinase activity can be used to test or screen the compounds of this invention and to identify c-Met antagonists. In this example, ELISA kits (R&D Systems, Inc., Minneapolis, Minn. 55413, USA) were used.
as §1, with “c-Met” for “PDGFRβ”, “it specific” for “various factors including”, “factor-Hepatocyte growth factor (HGF).” for “factors.”, “c-Met,” for “PDGFRβ,”
A compound to be tested was first dissolved in DMSO to a concentration of 10 mM and stored at −20° C. One day before the screening, CHO cells transfected with full length c-Met plasmid were grown in DMEM medium without the presence of serum. On the day of screening procedure, the compounds with various concentration in DMSO (from 0.5 nM to 500 nM) were added into DMEM medium, two hours later, Hepatocyte growth factor (HGF) was added into the medium at the concentration of 100 ng/mL to stimulate the production of phosphor-c-Met. Cell lysate from approximately 5×10^5 transfected CHO cells were reacted with anti-phosphor c-Met or anti-total c-Met antibody in 96 well plates, in the presence of detection antibody. The phosphor-c-Met or total c-Met were detected with Streptavidin-HRP (R&D Systems), followed by chemiluminescent detection. The level of c-Met kinase activity was quantified as the ratio between the amount of phosphor- and that of total c-Met proteins.

% of compound remained at the 30th minutes, Mouse liver microsome [1]	remaining activity at 0.1 µM [2] [%]	remaining activity at 0.1 µM [3] [%]	SMILES	% C-Met kinase activity remains [4]
B	< 70	< 70	[2H]C(c1c[nH]c2ncccc12)n1ccc2c(NC(=O)Nc3cc(Cl)ccc3F)cccc21 (stereo not drawn) [Example 20, 1-(5-chloro-2-fluorophenyl)-3-[1-[deuterio(1H-pyrrolo[2,3-b]pyridin-3-yl)methyl]indol-4-yl]urea]	A (the percentage of kinase activity remains is below 70%)
A	< 70	< 70	[2H]C(c1c[nH]c2ncccc12)N1CCc2c(NC(=O)Nc3cccc(C)c3)cccc21 (stereo not drawn) [Example 21, 1-[1-[Deuterio(1H-pyrrolo[2,3-b]pyridin-3-yl)methyl]indolin-4-yl]-3-(m-tolyl)urea]	B (the percentage is greater or equal to 70%)
A	< 70	< 70	[2H]C(c1c[nH]c2ncccc12)n1ccc2c(NC(=O)Nc3cccc(C)c3)cccc21 (stereo not drawn) [Example 22, 1-[1-[deuterio(1H-pyrrolo[2,3-b]pyridin-3-yl)methyl]indol-4-yl]-3-(m-tolyl)urea]	A (the percentage of kinase activity remains is below 70%)
